Patent publication US20250074891A1 (Anaxis Pharma Pty Ltd., priority 2021, published 2025)
pIC50, pKd: −log10 of the molar value.

Legend:
[1] = tested on: U937 cells; experiment: Counter screen: cell viability without TSQ cocktail (off-target effect); set-up: species or system human; settings: Homo sapiens, U-937, Table 38, read-out: Off-target effect (IC50 cell-based assay)
Procedure: Counter screen: In parallel, all compounds were tested for their ability to affect cell viability. The same U937 cells were treated with compound in DMSO without the TSQ cocktail. This counter screen enabled evaluation of off-target effects. In this case, cell viability was measured by CelltiterGlo.

[2] = tested on: U937 human histiocytic leukemia cell line; experiment: Cellular assay: inhibition of TSQ induced necroptosis (CellTitre-Glo); settings: Homo sapiens, U-937; U937 cells, TSQ cocktail, 48 hours, Table 38; read-out: Inhibition of TSQ-induced necroptosis (IC50 cell-based assay)
Procedure: […] ASSAY: Screening compounds for inhibition of TSQ induced necroptosis, 384 well plate format.
Cell Line ID: U937 human histiocytic leukemia cell line.
Cell Concentration (cells/well): Final cell density is 20,000 cells per well.
Cell growth medium: HT-RPMI medium+7.4% Fetal Bovine Serum (FBS). Cells are cultured in Corning 150 cm^z tissue culture flasks with vented caps at 37° C./5% CO2.
Incubation: Plates were incubated at 37° C./5% CO2 in a humidified incubator for 48 hours following addition of compounds and death stimuli (TSQ cocktail).
Compound concentration: 36 μM starting concentration, 1:3 dilution, 10 point
DMSO final concentration (% v/v): 0.3%.
Compounds in TSQ cocktail (T: TNF; S: Smac mimetic; Q: Q-VD-OPh) and their final concentrations: • hTNF-Fc (100 ng/ml)—produced by standard procedures as shown in Bossen et al., J Biol Chem, 2006, 281(20), 13964-13971. • Compound A (500 nM)—Smac mimetic, Tetralogic and SYNthesis med chem • Q-VD-OPh (10 μM)—MP Biomedicals
The cellular assay was carried out according to the following steps: • 1. Each well was prepared by sequential addition of: • a. DMSO (control; columns 1-2 and 23-24) or compound in DMSO—addition was performed using acoustic transfer of nl volumes of stock compound to give final test concentrations of 36, 12, 4, 1.3, 0.44, 0.148, 0.049, 0.016, 0.005 and 0.002 μM. All wells were backfilled with DMSO to a final total volume in the well of 100 nl. • b. Following compound/DMSO addition in step (a), 40 μL of cell suspension (5×10^5 cells/mL) was added to provide a final cell concentration of 20,000 cells per well, and • c. Following cell addition in step (b), 10 μL of 5×TSQ cocktail (except to positive controls; […]) was added to each well. • 2. After 48 hours, plate was removed from the 37° C. incubator and equilibrated to room temperature for 45 minutes. • 3. 15 μL of room temperature CellTitre-Glo2™ (Promega™) was added to each well. • 4. Shook plates for 2 minutes (˜600 rpm) and incubated at room temperature for 15 minutes to allow signal to stabilise. • 5. Read luminescence readout on a plate reader.
Percent viability was calculated for each compound according to equation (2):
[formula] • wherein • RawData is the readout of any cell containing a compound of the invention • TA is the total activity provided by the luminescence readout from DMSO only wells (columns 2 and 24)=100% viability • NSA is the non-specific activity provided by DMSO+TSQ wells (columns 1 and 23)=0% viability
Curve fitting: 10-point titration curves are fitted with the 4-parameter logistic nonlinear regression model and the IC50 reported is the inflection point of the curve.
Analysis: Data was loaded into Dotmatics™ and visualised using the Tibco® Spotfire™ software. 10 points titration curves were fitted with the 4-parameter logistic nonlinear regression model and the IC50 reported reflect the inflection point of the curve for curve fitting.
Assay involving the TSQ cocktail (T: TNF; S: Smac mimetic; Q: Q-VD-OPh): TSQ treatment ensures that cells specifically undergo necroptotic cell death. TNF activates the TNF receptor, Smac mimetic directs the signal away from proinflammatory signaling and toward the RIP1/RIP3-mediated cell death pathways, and Q-VD-OPh ensures that the apoptotic response is blocked leaving only the programmed necrosis response. The compounds' activity (solution in DMSO) tested in this TSQ-induced assay was evaluated by determining the number of viable cells in culture by measuring the amount of ATP present as measured by CelltiterGlo.

[3] = target: RIP1 (Homo sapiens (Human), UniProt Q13546); experiment: KINOMEscan binding assay, RIP1; settings: Table 35
[4] = target: RIP3 (Homo sapiens (Human), UniProt Q9Y572); experiment: KINOMEscan binding assay, RIP3; settings: Table 35
Procedure: (§1) Kinase assays. For most assays, kinase-tagged T7 phage strains were grown in parallel in 24-well blocks in an E. coli host derived from the BL21 strain. E. coli were grown to log-phase and infected with T7 phage from a frozen stock (multiplicity of infection=0.4) and incubated with shaking at 32° C. until lysis (90-150 minutes).
(§2) The Hill Slope was set to −1.

[5] = target: MLKL (full length) (Homo sapiens (Human), UniProt Q8NB16); experiment: KINOMEscan binding assay, MLKL (full length); settings: Table 35
Procedure: as §1, §2

MLKL (full length), sequence (Q8NB16 whole entry): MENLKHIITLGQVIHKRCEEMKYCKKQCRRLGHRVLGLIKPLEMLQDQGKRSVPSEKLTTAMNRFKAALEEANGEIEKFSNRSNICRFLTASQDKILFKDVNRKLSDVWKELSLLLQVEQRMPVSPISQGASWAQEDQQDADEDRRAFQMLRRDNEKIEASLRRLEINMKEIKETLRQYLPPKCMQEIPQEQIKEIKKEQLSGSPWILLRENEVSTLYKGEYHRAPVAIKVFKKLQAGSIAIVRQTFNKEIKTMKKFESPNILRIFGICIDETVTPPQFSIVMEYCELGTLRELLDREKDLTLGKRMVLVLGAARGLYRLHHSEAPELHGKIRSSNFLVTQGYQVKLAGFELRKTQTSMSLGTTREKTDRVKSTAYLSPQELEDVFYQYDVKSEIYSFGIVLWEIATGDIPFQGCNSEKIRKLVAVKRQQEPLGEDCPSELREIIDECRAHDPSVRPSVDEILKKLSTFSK
RIP3, sequence (Q9Y572 whole entry): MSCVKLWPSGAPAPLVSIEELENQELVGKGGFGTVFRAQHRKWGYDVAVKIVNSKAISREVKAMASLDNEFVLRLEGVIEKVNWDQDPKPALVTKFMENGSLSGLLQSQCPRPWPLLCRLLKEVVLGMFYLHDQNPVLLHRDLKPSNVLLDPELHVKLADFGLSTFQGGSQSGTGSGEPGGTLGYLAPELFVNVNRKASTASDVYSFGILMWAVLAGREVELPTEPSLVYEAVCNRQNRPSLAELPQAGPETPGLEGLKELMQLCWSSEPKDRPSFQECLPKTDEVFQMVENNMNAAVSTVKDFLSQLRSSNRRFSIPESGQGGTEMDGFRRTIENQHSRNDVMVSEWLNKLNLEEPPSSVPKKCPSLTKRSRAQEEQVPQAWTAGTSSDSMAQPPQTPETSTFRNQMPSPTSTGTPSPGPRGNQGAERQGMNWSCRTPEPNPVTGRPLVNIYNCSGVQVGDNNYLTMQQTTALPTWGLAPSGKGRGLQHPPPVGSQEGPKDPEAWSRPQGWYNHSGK
RIP1, sequence (Q13546 whole entry): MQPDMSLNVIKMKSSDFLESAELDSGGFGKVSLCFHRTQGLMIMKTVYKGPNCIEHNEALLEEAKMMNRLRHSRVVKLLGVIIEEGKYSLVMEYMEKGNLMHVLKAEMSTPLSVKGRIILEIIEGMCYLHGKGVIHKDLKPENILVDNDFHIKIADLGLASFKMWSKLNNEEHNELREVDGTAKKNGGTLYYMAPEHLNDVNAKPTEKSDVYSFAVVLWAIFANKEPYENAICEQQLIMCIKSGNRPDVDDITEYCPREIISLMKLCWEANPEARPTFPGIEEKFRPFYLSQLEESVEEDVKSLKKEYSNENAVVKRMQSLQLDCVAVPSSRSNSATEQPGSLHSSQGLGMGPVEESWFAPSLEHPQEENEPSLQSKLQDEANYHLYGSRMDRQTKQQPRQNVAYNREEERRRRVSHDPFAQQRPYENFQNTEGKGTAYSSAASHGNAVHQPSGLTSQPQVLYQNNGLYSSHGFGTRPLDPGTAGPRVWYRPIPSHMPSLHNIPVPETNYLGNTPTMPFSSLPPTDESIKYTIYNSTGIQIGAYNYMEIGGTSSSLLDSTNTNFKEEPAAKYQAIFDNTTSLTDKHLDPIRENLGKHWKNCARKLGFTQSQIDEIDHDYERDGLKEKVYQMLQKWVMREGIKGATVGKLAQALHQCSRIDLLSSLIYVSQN

pKd [3]	pKd [4]	pKd [5]	Compound	pIC50 [1]	pIC50 [2]
–	–	–	CCS(=O)(=O)Nc1ccc(-c2n[nH]c(Nc3ccnc(OCCOCCOCCOCCNC(=O)COc4cccc5c4C(=O)N(C4CCC(=O)NC4=O)C5=O)c3)c2C(N)=O)cc1 (stereo not shown) [Compound 1002, 5-({2-[2-(2-{2-[2-(2-{[2-(2,6-dioxopiperidin-3-yl)-1,3-dioxo-2,3-dihydro-1H-isoindol-4-yl]oxy}acetamido)ethoxy]ethoxy}ethoxy)ethoxy]pyridin-4-yl}amino)-3-(4-ethanesulfonamidophenyl)-1H-pyrazole-4-carboxamide]	< 5.00	< 5.00
–	–	–	Cc1ncsc1-c1ccc(CNC(=O)[C@@H]2C[C@@H](O)CN2C(=O)[C@@H](NC(=O)CCCCCCOc2ccc(Nc3[nH]nc(-c4ccc(NS(=O)(=O)C(F)F)c(O[C@@H](C)c5ccc(F)cc5)c4)c3C(N)=O)nc2)C(C)(C)C)cc1 [Compound 1059, 3-[4-(difluoromethanesulfonamido)-3-[(1S)-1-(4-fluorophenyl)ethoxy]phenyl]-5-({5-[(6-{[(2S)-1-[(2S,4R)-4-hydroxy-2-({[4-(4-methyl-1,3-thiazol-5-yl)phenyl]methyl}carbamoyl)pyrrolidin-1-yl]-3,3-dimethyl-1-oxobutan-2-yl]carbamoyl}hexyl)oxy]pyridin-2-yl}amino)-1H-pyrazole-4-carboxamide]	5.00 to 6.00	> 6.00
–	–	–	Cc1ncsc1-c1ccc(CNC(=O)[C@@H]2C[C@@H](O)CN2C(=O)[C@@H](NC(=O)c2cccc(COc3ccc(Nc4[nH]nc(-c5ccc(NS(=O)(=O)C(F)F)c(O[C@@H](C)c6ccc(F)cc6)c5)c4C(N)=O)nc3)c2)C(C)(C)C)cc1 [Compound 1031, 3-(4-(difluoromethylsulfonamido)-3-((S)-1-(4-fluorophenyl)ethoxy)phenyl)-5-((5-((3-(((S)-1-((2S,4R)-4-hydroxy-2-((4-(4-methylthiazol-5-yl)benzyl)carbamoyl)pyrrolidin-1-yl)-3,3-dimethyl-1-oxobutan-2-yl)carbamoyl)benzyl)oxy)pyridin-2-yl)amino)-1H-pyrazole-4-carboxamide]	5.00 to 6.00	> 6.00
–	–	–	CCS(=O)(=O)Nc1ccc(-c2n[nH]c(Nc3ccnc(OCCOCCOCCNC(=O)COc4cccc5c4C(=O)N(C4CCC(=O)NC4=O)C5=O)c3)c2C(N)=O)cc1 (stereo not shown) [Compound 1004, 5-((2-(2-(2-(2-(2-((2-(2,6-dioxopiperidin-3-yl)-1,3-dioxoisoindolin-4-yl)oxy)acetamido)ethoxy)ethoxy)ethoxy)pyridin-4-yl)amino)-3-(4-(ethylsulfonamido)phenyl)-1H-pyrazole-4-carboxamide]	< 5.00	< 5.00
–	–	–	CCS(=O)(=O)Nc1ccc(-c2n[nH]c(Nc3ccnc(OCCOCCNC(=O)COc4cccc5c4C(=O)N(C4CCC(=O)NC4=O)C5=O)c3)c2C(N)=O)cc1 (stereo not shown) [Compound 1003, 5-((2-(2-(2-(2-((2-(2,6-dioxopiperidin-3-yl)-1,3-dioxoisoindolin-4-yl)oxy)acetamido)ethoxy)ethoxy)pyridin-4-yl)amino)-3-(4-(ethylsulfonamido)phenyl)-1H-pyrazole-4-carboxamide]	< 5.00	< 5.00
< 4.52	< 4.52	> 8.00	C[C@H](Oc1cc(-c2n[nH]c(Nc3ccccn3)c2C(N)=O)ccc1NS(=O)(=O)CC(F)(F)F)c1ccc(F)cc1 [Compound 154, (S)-3-(3-(1-(4-fluorophenyl)ethoxy)-4-((2,2,2-trifluoroethyl)sulfonamido)phenyl)-5-(pyridine-2-ylamino)-1H-pyrazole-4-carboxamide]	–	–
< 4.52	< 4.52	> 8.00	NC(=O)c1c(-c2ccc(NS(=O)(=O)CCC(F)(F)F)c(OCc3ccc(F)cc3)c2)n[nH]c1Nc1cnccn1 [Compound 184, 3-(3-((4-fluorobenzyl)oxy)-4-((3,3,3-trifluoropropyl)sulfonamido)phenyl)-5-(pyrazin-2-ylamino)-1H-pyrazole-4-carboxamide]	–	–
< 4.52	< 4.52	> 8.00	CCS(=O)(=O)Nc1ccc(-c2n[nH]c(Nc3cncc(OC)n3)c2C(N)=O)cc1OCc1ccc(F)cc1 [Compound 15, 3-(4-(ethylsulfonamido)-3-((4-fluorobenzyl)oxy)phenyl) 5-((6-methoxypyrazin-2-yl)amino)-1H-pyrazole-4-carboxamide]	–	–
< 4.52	< 4.52	> 8.00	NC(=O)c1c(-c2ccc(NS(=O)(=O)C(F)F)c(OCc3ccc(F)cc3)c2)n[nH]c1Nc1cnc(C(F)(F)F)cn1 [Compound 246, 3-[4-(difluoromethanesulfonamido)-3-[(4-fluorophenyl)methoxy]phenyl]-5-{[5-(trifluoromethyl)pyrazin-2-yl]amino}-1H-pyrazole-4-carboxamide]	–	–
< 4.52	< 4.52	> 8.00	Cc1cc(Nc2[nH]nc(-c3ccc(NS(=O)(=O)C(F)F)c(O[C@@H](C)c4ccc(F)cc4)c3)c2C(N)=O)on1 [Compound 302, (S)-3-(4-((difluoromethyl)sulfonamido)-3-(1-(4-fluorophenyl)ethoxy)phenyl)-5-((3-methylisoxazol-5-yl)amino)-1H-pyrazole-4-carboxamide]	–	–
< 4.52	< 4.52	> 8.00	NC(=O)c1c(-c2ccc(NS(=O)(=O)CC(F)(F)F)c(OCc3ccccn3)c2)n[nH]c1Nc1cnccn1 [Compound 227, 5-[(pyrazin-2-yl)amino]-3-{3-[(pyridin-2-yl)methoxy]-4-(2,2,2-trifluoroethanesulfonamido)phenyl}-1H-pyrazole-4-carboxamide]	–	–
< 4.52	< 4.52	> 8.00	Cc1nccc(Nc2[nH]nc(-c3ccc(NS(=O)(=O)C(F)F)c(O[C@@H](C)c4ccc(F)cc4)c3)c2C(N)=O)n1 [Compound 309, (S)-3-(4-((difluoromethyl)sulfonamido)-3-(1-(4-fluorophenyl)ethoxy)phenyl)-5-((2-methylpyrimidin-4-yl)amino)-1H-pyrazole-4-carboxamide]	–	–
< 4.52	< 4.52	> 8.00	N#Cc1cccc(Nc2[nH]nc(-c3ccc(NS(=O)(=O)C(F)F)cc3)c2C(N)=O)n1 [Compound 258, 5-[(6-cyanopyridin-2-yl)amino]-3-[4-(difluoromethanesulfonamido)phenyl]-1H-pyrazole-4-carboxamide]	–	–
< 4.52	< 4.52	> 8.00	N#Cc1cccc(Nc2[nH]nc(-c3ccc(NS(=O)(=O)CC(F)(F)F)cc3)c2C(N)=O)n1 [Compound 237, 5-[(6-cyanopyridin-2-yl)amino]-3-[4-(2,2,2-trifluoroethanesulfonamido)phenyl]-1H-pyrazole-4-carboxamide]	–	–
